Data taken from PubChem BioAssay (NCI).
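Briefly, cells in 96-well plates were exposed to five compound concentrations for 48 h, and endpoints were estimated by linear interpolation. Definition used: TGI = concentration required for complete inhibition of growth.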

Tested on: M14 melanoma
Test: inhibition of tumour cell growth, NCI panel, 48 h

| SMILES | TGI [µM] |
| --- | --- |
| CC(C)/C(Cl)=N\OC(=O)Nc1ccc(F)cc1 | 16.1 |
| COc1cc(N2C(=O)C(=O)C3(CCCCC3)C2=O)cc(OC)c1OC | > 100 |
| Cc1c(S(=O)(=O)/N=C(\NN)Nc2ccc(Cl)cc2)sc2ccc(Cl)cc12 | 34.8 |
| COc1cc(/C=C2/SC(c3ccccc3)N(c3cccc(NC(C)=O)c3)C2=O)cc(OC)c1OC (stereo not drawn) | > 100 |
| CC(=O)Oc1ccc2[nH]c3c(C)c4cccc-4ccc3c2c1 | 4.21 |

Tested on: HOP-92 NSCLC
Test: inhibition of tumour cell growth, NCI panel, 48 h

| SMILES | TGI [µM] |
| --- | --- |
| Cc1c(S(=O)(=O)/N=C(\NN)Nc2ccc(Cl)cc2)sc2ccc(Cl)cc12 | 31.4 |
| COc1cc(/C=C2/SC(c3ccccc3)N(c3cccc(NC(C)=O)c3)C2=O)cc(OC)c1OC (stereo not drawn) | > 100 |
| CC(=O)Oc1ccc2[nH]c3c(C)c4cccc-4ccc3c2c1 | 4.17 |

Tested on: OVCAR-5 ovarian
Test: inhibition of tumour cell growth, NCI panel, 48 h

| SMILES | TGI [µM] |
| --- | --- |
| CC(C)/C(Cl)=N\OC(=O)Nc1ccc(F)cc1 | 30.4 |
| COc1cc(N2C(=O)C(=O)C3(CCCCC3)C2=O)cc(OC)c1OC | > 100 |
| Cc1c(S(=O)(=O)/N=C(\NN)Nc2ccc(Cl)cc2)sc2ccc(Cl)cc12 | 27.9 |
| COc1cc(/C=C2/SC(c3ccccc3)N(c3cccc(NC(C)=O)c3)C2=O)cc(OC)c1OC (stereo not drawn) | > 100 |
| CC(=O)Oc1ccc2[nH]c3c(C)c4cccc-4ccc3c2c1 | 4.14 |

Tested on: HOP-62 NSCLC
Test: inhibition of tumour cell growth, NCI panel, 48 h

| SMILES | TGI [µM] |
| --- | --- |
| CC(C)/C(Cl)=N\OC(=O)Nc1ccc(F)cc1 | 33.4 |
| COc1cc(N2C(=O)C(=O)C3(CCCCC3)C2=O)cc(OC)c1OC | > 100 |
| Cc1c(S(=O)(=O)/N=C(\NN)Nc2ccc(Cl)cc2)sc2ccc(Cl)cc12 | 36.3 |
| COc1cc(/C=C2/SC(c3ccccc3)N(c3cccc(NC(C)=O)c3)C2=O)cc(OC)c1OC (stereo not drawn) | > 100 |
| CC(=O)Oc1ccc2[nH]c3c(C)c4cccc-4ccc3c2c1 | 4.8 |

Tested on: ACHN renal
Test: inhibition of tumour cell growth, NCI panel, 48 h

| SMILES | TGI [µM] |
| --- | --- |
| CC(C)/C(Cl)=N\OC(=O)Nc1ccc(F)cc1 | 7.7 |
| COc1cc(N2C(=O)C(=O)C3(CCCCC3)C2=O)cc(OC)c1OC | > 100 |
| Cc1c(S(=O)(=O)/N=C(\NN)Nc2ccc(Cl)cc2)sc2ccc(Cl)cc12 | 30 |
| COc1cc(/C=C2/SC(c3ccccc3)N(c3cccc(NC(C)=O)c3)C2=O)cc(OC)c1OC (stereo not drawn) | > 100 |
| CC(=O)Oc1ccc2[nH]c3c(C)c4cccc-4ccc3c2c1 | 3.33 |

Tested on: SK-MEL-2 melanoma
Test: inhibition of tumour cell growth, NCI panel, 48 h

| SMILES | TGI [µM] |
| --- | --- |
| CC(C)/C(Cl)=N\OC(=O)Nc1ccc(F)cc1 | 32.8 |
| COc1cc(N2C(=O)C(=O)C3(CCCCC3)C2=O)cc(OC)c1OC | > 100 |
| Cc1c(S(=O)(=O)/N=C(\NN)Nc2ccc(Cl)cc2)sc2ccc(Cl)cc12 | 30.5 |
| CC(=O)Oc1ccc2[nH]c3c(C)c4cccc-4ccc3c2c1 | 3.66 |

Tested on: NCI/ADR-RES ovarian
Test: inhibition of tumour cell growth, NCI panel, 48 h

| SMILES | TGI [µM] |
| --- | --- |
| CC(C)/C(Cl)=N\OC(=O)Nc1ccc(F)cc1 | > 48.5 |
| COc1cc(N2C(=O)C(=O)C3(CCCCC3)C2=O)cc(OC)c1OC | > 100 |
| Cc1c(S(=O)(=O)/N=C(\NN)Nc2ccc(Cl)cc2)sc2ccc(Cl)cc12 | 40.8 |
| COc1cc(/C=C2/SC(c3ccccc3)N(c3cccc(NC(C)=O)c3)C2=O)cc(OC)c1OC (stereo not drawn) | > 100 |
| CC(=O)Oc1ccc2[nH]c3c(C)c4cccc-4ccc3c2c1 | 5.33 |

Tested on: HCC-2998 colon
Test: inhibition of tumour cell growth, NCI panel, 48 h

| SMILES | TGI [µM] |
| --- | --- |
| CC(C)/C(Cl)=N\OC(=O)Nc1ccc(F)cc1 | 32 |
| COc1cc(N2C(=O)C(=O)C3(CCCCC3)C2=O)cc(OC)c1OC | > 100 |
| COc1cc(/C=C2/SC(c3ccccc3)N(c3cccc(NC(C)=O)c3)C2=O)cc(OC)c1OC (stereo not drawn) | > 100 |
| CC(=O)Oc1ccc2[nH]c3c(C)c4cccc-4ccc3c2c1 | 5.05 |

Tested on: SNB-19 CNS
Test: inhibition of tumour cell growth, NCI panel, 48 h

| SMILES | TGI [µM] |
| --- | --- |
| CC(C)/C(Cl)=N\OC(=O)Nc1ccc(F)cc1 | 39.3 |
| COc1cc(N2C(=O)C(=O)C3(CCCCC3)C2=O)cc(OC)c1OC | > 100 |
| Cc1c(S(=O)(=O)/N=C(\NN)Nc2ccc(Cl)cc2)sc2ccc(Cl)cc12 | 38 |
| COc1cc(/C=C2/SC(c3ccccc3)N(c3cccc(NC(C)=O)c3)C2=O)cc(OC)c1OC (stereo not drawn) | > 100 |
| CC(=O)Oc1ccc2[nH]c3c(C)c4cccc-4ccc3c2c1 | 3.69 |

Tested on: OVCAR-3 ovarian
Test: inhibition of tumour cell growth, NCI panel, 48 h

| SMILES | TGI [µM] |
| --- | --- |
| CC(C)/C(Cl)=N\OC(=O)Nc1ccc(F)cc1 | 21.6 |
| COc1cc(N2C(=O)C(=O)C3(CCCCC3)C2=O)cc(OC)c1OC | > 100 |
| Cc1c(S(=O)(=O)/N=C(\NN)Nc2ccc(Cl)cc2)sc2ccc(Cl)cc12 | 32 |
| COc1cc(/C=C2/SC(c3ccccc3)N(c3cccc(NC(C)=O)c3)C2=O)cc(OC)c1OC (stereo not drawn) | > 100 |
| CC(=O)Oc1ccc2[nH]c3c(C)c4cccc-4ccc3c2c1 | 3.64 |

Tested on: A498 renal
Test: inhibition of tumour cell growth, NCI panel, 48 h

| SMILES | TGI [µM] |
| --- | --- |
| CC(C)/C(Cl)=N\OC(=O)Nc1ccc(F)cc1 | 28.5 |
| Cc1c(S(=O)(=O)/N=C(\NN)Nc2ccc(Cl)cc2)sc2ccc(Cl)cc12 | 29.5 |
| COc1cc(/C=C2/SC(c3ccccc3)N(c3cccc(NC(C)=O)c3)C2=O)cc(OC)c1OC (stereo not drawn) | > 100 |
| CC(=O)Oc1ccc2[nH]c3c(C)c4cccc-4ccc3c2c1 | 5.53 |

Tested on: BT-549 breast
Test: inhibition of tumour cell growth, NCI panel, 48 h

| SMILES | TGI [µM] |
| --- | --- |
| CC(C)/C(Cl)=N\OC(=O)Nc1ccc(F)cc1 | 24.2 |
| COc1cc(N2C(=O)C(=O)C3(CCCCC3)C2=O)cc(OC)c1OC | > 100 |
| Cc1c(S(=O)(=O)/N=C(\NN)Nc2ccc(Cl)cc2)sc2ccc(Cl)cc12 | 30.9 |
| COc1cc(/C=C2/SC(c3ccccc3)N(c3cccc(NC(C)=O)c3)C2=O)cc(OC)c1OC (stereo not drawn) | > 100 |
| CC(=O)Oc1ccc2[nH]c3c(C)c4cccc-4ccc3c2c1 | 5.37 |

Tested on: SW-620 colon
Test: inhibition of tumour cell growth, NCI panel, 48 h

| SMILES | TGI [µM] |
| --- | --- |
| CC(C)/C(Cl)=N\OC(=O)Nc1ccc(F)cc1 | 3.23 |
| COc1cc(N2C(=O)C(=O)C3(CCCCC3)C2=O)cc(OC)c1OC | > 100 |
| Cc1c(S(=O)(=O)/N=C(\NN)Nc2ccc(Cl)cc2)sc2ccc(Cl)cc12 | 71.2 |
| COc1cc(/C=C2/SC(c3ccccc3)N(c3cccc(NC(C)=O)c3)C2=O)cc(OC)c1OC (stereo not drawn) | > 100 |
| CC(=O)Oc1ccc2[nH]c3c(C)c4cccc-4ccc3c2c1 | 10.7 |

Tested on: RXF 393 renal
Test: inhibition of tumour cell growth, NCI panel, 48 h

| SMILES | TGI [µM] |
| --- | --- |
| CC(C)/C(Cl)=N\OC(=O)Nc1ccc(F)cc1 | 29.9 |
| COc1cc(N2C(=O)C(=O)C3(CCCCC3)C2=O)cc(OC)c1OC | > 100 |
| Cc1c(S(=O)(=O)/N=C(\NN)Nc2ccc(Cl)cc2)sc2ccc(Cl)cc12 | 23.6 |
| COc1cc(/C=C2/SC(c3ccccc3)N(c3cccc(NC(C)=O)c3)C2=O)cc(OC)c1OC (stereo not drawn) | > 100 |
| CC(=O)Oc1ccc2[nH]c3c(C)c4cccc-4ccc3c2c1 | 3.78 |

Tested on: MDA-MB-435
Test: inhibition of tumour cell growth, NCI panel, 48 h

| SMILES | TGI [µM] |
| --- | --- |
| COc1cc(N2C(=O)C(=O)C3(CCCCC3)C2=O)cc(OC)c1OC | > 100 |
| COc1cc(/C=C2/SC(c3ccccc3)N(c3cccc(NC(C)=O)c3)C2=O)cc(OC)c1OC (stereo not drawn) | > 100 |
| CC(=O)Oc1ccc2[nH]c3c(C)c4cccc-4ccc3c2c1 | 3.81 |
